Source: ChEMBL document CHEMBL4011597, “Synthesis, screening and docking of fused pyrano[3,2-d]pyrimidine derivatives as xanthine oxidase inhibitor” (Eur J Med Chem, 2017)

Tests used:
[1] = biological target: T1, Xanthine dehydrogenase/oxidase (Bos taurus, UniProt P80457); test: Inhibition of bovine xanthine oxidase assessed as reduction in uric acid formation at 1 uM using xanthine as substrate pretreated for 5 mins followed by substrate addition measured by UV-vis spectrophotometric method relative to control; details: cattle
[2] = biological target: T1, Xanthine dehydrogenase/oxidase; test: Inhibition of bovine xanthine oxidase assessed as reduction in uric acid formation at 10 uM using xanthine as substrate pretreated for 5 mins followed by substrate addition measured by UV-vis spectrophotometric method relative to control; details: cattle
[3] = biological target: T1, Xanthine dehydrogenase/oxidase; test: Inhibition of bovine xanthine oxidase assessed as reduction in uric acid formation at 100 uM using xanthine as substrate pretreated for 5 mins followed by substrate addition measured by UV-vis spectrophotometric method relative to control; details: cattle
[4] = biological target: T1, Xanthine dehydrogenase/oxidase; test: Inhibition of bovine xanthine oxidase assessed as reduction in uric acid formation using xanthine as substrate pretreated for 5 mins followed by substrate addition measured by UV-vis spectrophotometric method

T1 sequence (P80457 whole entry): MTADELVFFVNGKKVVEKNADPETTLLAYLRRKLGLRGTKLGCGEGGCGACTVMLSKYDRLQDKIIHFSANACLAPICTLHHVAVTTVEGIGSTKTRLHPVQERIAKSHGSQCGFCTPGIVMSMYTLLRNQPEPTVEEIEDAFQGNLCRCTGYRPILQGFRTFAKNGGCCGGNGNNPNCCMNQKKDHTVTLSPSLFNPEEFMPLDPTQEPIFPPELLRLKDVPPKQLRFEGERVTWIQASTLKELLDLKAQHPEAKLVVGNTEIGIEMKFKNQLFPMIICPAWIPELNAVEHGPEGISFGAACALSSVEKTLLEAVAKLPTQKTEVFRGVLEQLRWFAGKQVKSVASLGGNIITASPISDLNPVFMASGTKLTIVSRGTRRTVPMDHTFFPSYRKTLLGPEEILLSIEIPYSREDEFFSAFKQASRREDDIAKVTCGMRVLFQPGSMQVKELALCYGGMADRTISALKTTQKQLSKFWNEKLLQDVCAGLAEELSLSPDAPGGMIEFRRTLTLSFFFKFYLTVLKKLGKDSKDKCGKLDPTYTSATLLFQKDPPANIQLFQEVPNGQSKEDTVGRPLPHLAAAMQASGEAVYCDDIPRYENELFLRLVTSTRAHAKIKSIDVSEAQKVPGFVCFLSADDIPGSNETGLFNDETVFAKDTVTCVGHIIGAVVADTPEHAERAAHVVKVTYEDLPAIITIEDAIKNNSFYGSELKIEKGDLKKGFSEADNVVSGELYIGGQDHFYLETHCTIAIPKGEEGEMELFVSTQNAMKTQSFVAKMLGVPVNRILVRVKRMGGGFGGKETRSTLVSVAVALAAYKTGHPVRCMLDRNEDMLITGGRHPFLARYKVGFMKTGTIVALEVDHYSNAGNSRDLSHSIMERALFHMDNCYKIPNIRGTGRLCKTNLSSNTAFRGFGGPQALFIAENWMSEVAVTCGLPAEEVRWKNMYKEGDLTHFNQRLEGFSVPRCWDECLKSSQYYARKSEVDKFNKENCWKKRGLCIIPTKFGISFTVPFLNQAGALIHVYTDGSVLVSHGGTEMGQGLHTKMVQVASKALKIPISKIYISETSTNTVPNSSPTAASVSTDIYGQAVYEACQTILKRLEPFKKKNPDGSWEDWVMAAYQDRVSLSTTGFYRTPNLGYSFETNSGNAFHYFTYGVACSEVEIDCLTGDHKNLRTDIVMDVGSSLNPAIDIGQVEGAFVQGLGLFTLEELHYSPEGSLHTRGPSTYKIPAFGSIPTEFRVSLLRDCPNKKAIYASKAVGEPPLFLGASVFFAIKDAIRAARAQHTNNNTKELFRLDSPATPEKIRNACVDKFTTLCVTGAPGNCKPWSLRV

| Compound | inhibition at 1 µM [1] | inhibition at 10 µM [2] | inhibition at 100 µM [3] | IC50 [4] |
| --- | --- | --- | --- | --- |
| COc1ccc(Nc2ncnc3c2C(c2ccccc2)c2c(c(=O)oc4ccccc24)O3)cc1 (stereo unspecified) | 25.1% | 36.4% | 72.8% | 40 µM |
| COc1ccc(Nc2ncnc3c2C(c2ccc(Cl)cc2)C2=C(CCCC2=O)O3)cc1 (stereo unspecified) | 22% | 34.5% | 69.4% | 55 µM |
| COc1ccc(Nc2ncnc3c2C(c2ccc(O)c(O)c2)C2=C(CCCC2=O)O3)cc1 (stereo unspecified) | 27.3% | 56.5% | 93.8% | 8.5 µM |
| COc1ccc(Nc2ncnc3c2C(c2ccc(O)c(O)c2)c2c(n[nH]c2C)O3)cc1 (stereo unspecified) | 23.5% | 31.6% | 60.6% | 68 µM |
| COc1ccc(Nc2ncnc3c2C(c2cccc(O)c2)c2c(c(=O)oc4ccccc24)O3)cc1 (stereo unspecified) | 28.5% | 39.5% | 81.3% | 35 µM |
| COc1ccc(Nc2ncnc3c2C(c2ccc(OC)c(OC)c2)c2c(c(=O)oc4ccccc24)O3)cc1 (stereo unspecified) | 36.7% | 48% | 94% | 17 µM |
| COc1ccc(Nc2ncnc3c2C(c2cccc(Cl)c2)c2c(c(=O)oc4ccccc24)O3)cc1 (stereo unspecified) | 23.2% | 34.5% | 69.6% | 54 µM |
| COc1ccc(Nc2ncnc3c2C(c2ccc(Cl)cc2)c2c(c(=O)oc4ccccc24)O3)cc1 (stereo unspecified) | 21.3% | 33.5% | 67.2% | 56 µM |
| COc1ccc(Nc2ncnc3c2C(c2cccc([N+](=O)[O-])c2)c2c(c(=O)oc4ccccc24)O3)cc1 (stereo unspecified) | 20.2% | 31.5% | 63.6% | 65 µM |
| COc1ccc(Nc2ncnc3c2C(c2ccc(OC)c(OC)c2)c2c(n[nH]c2C)O3)cc1 (stereo unspecified) | 23.6% | 31.4% | 63.7% | 64 µM |
| COc1ccc(Nc2ncnc3c2C(c2ccc(F)cc2)c2c(c(=O)oc4ccccc24)O3)cc1 (stereo unspecified) | 24.5% | 35.1% | 70.2% | 50 µM |
| COc1ccc(Nc2ncnc3c2C(c2cccc(C)c2)c2c(c(=O)oc4ccccc24)O3)cc1 (stereo unspecified) | 28.7% | 39.1% | 78.2% | 37 µM |
| COc1ccc(Nc2ncnc3c2C(c2cccc(Cl)c2)C2=C(CCCC2=O)O3)cc1 (stereo unspecified) | 29.2% | 34.6% | 70.2% | 52 µM |

The next lines start with the values.

| inhibition at 1 µM [1] | inhibition at 10 µM [2] | inhibition at 100 µM [3] | IC50 [4] | Compound |
| --- | --- | --- | --- | --- |
| 29.4% | 41.2% | 82.3% | 30 µM | COc1ccc(Nc2ncnc3c2C(c2cccc(O)c2)C2=C(CCCC2=O)O3)cc1 (stereo unspecified) |
| 33.2% | 47.2% | 92.3% | 15 µM | COc1ccc(Nc2ncnc3c2C(c2ccc(O)c(OC)c2)c2c(c(=O)oc4ccccc24)O3)cc1 (stereo unspecified) |
| 31% | 40.2% | 80.5% | 35 µM | COc1ccc(Nc2ncnc3c2C(c2cccc(C)c2)C2=C(CCCC2=O)O3)cc1 (stereo unspecified) |
| 27.1% | 35.5% | 71.1% | 50 µM | COc1ccc(Nc2ncnc3c2C(c2ccc(F)cc2)C2=C(CCCC2=O)O3)cc1 (stereo unspecified) |
| 30.9% | 41.2% | 82.4% | 30 µM | COc1ccc(Nc2ncnc3c2C(c2ccc(O)cc2)c2c(c(=O)oc4ccccc24)O3)cc1 (stereo unspecified) |
| 22.2% | 30.5% | 61.9% | 64 µM | COc1ccc(Nc2ncnc3c2C(c2ccc([N+](=O)[O-])cc2)c2c(c(=O)oc4ccccc24)O3)cc1 (stereo unspecified) |
